Reference: ChEMBL document CHEMBL3885881, “DrugMatrix”

Species on record: Rattus norvegicus
Assay: DrugMatrix - Regimen: Daily Repeat
Type: toxicity, organism-based, Sprague-Dawley
Design: regimen Daily Repeat, gender Male, age 6-8 weeks
Conditions: in vivo, po, route oral GAVAGE, vehicle 100 % WATER; for ABSOLUTE BASOPHIL / ABSOLUTE EOSINOPHIL / ABSOLUTE LYMPHOCYTE / ABSOLUTE MONOCYTE / ABSOLUTE SEGMENTED NEUTROPHIL / BASOPHIL / EOSINOPHIL / ERYTHROCYTE COUNT / HEMATOCRIT / HEMOGLOBIN / LEUKOCYTE COUNT / LYMPHOCYTE / MEAN CORPUSCULAR HEMOGLOBIN / MEAN CORPUSCULAR HEMOGLOBIN CONCENTRATION / MEAN CORPUSCULAR VOLUME / MONOCYTE / NEUTROPHIL / NUCLEATED RED BLOOD CELLS / PLATELET COUNT: tissue Blood; for ALANINE AMINOTRANSFERASE / ALBUMIN / ALKALINE PHOSPHATASE / ASPARTATE AMINOTRANSFERASE / BLOOD UREA NITROGEN / CARBON DIOXIDE / CHLORIDE / CHOLESTEROL / CREATINE PHOSPHOKINASE / CREATININE / GLUCOSE / LACTATE DEHYDROGENASE / LIPASE / PHOSPHORUS / POTASSIUM / SODIUM / TOTAL BILIRUBIN / TOTAL PROTEIN / URIC ACID: tissue Plasma
[1] = 6 mg/kg, 120 h, dose level Low, time 5 day
[2] = 414 mg/kg, 72 h, dose level High, time 3 day
[3] = 414 mg/kg, 120 h, dose level High, time 5 day

CN1CCN(C(=O)OC2c3nccnc3C(=O)N2c2ccc(Cl)cn2)CC1 (centres undefined) [ZOPICLONE]
ABSOLUTE BASOPHIL [1]: 0 CELLS/uL | ABSOLUTE EOSINOPHIL [1]: 89.67 CELLS/uL | ABSOLUTE LYMPHOCYTE [1]: 11847.67 CELLS/uL | ABSOLUTE MONOCYTE [1]: 80.67 CELLS/uL | ABSOLUTE SEGMENTED NEUTROPHIL [1]: 982 CELLS/uL | BASOPHIL [1]: 0% | EOSINOPHIL [1]: 0.67% | ERYTHROCYTE COUNT [1]: 6 x10E6/uL | HEMATOCRIT [1]: 36.37% | HEMOGLOBIN [1]: 14 G/DL | LEUKOCYTE COUNT [1]: 13 x10E3/uL | LYMPHOCYTE [1]: 91% | MEAN CORPUSCULAR HEMOGLOBIN [1]: 23.3 pg | MEAN CORPUSCULAR HEMOGLOBIN CONCENTRATION [1]: 38.5 G/DL | MEAN CORPUSCULAR VOLUME [1]: 60.6 fL | MONOCYTE [1]: 0.67% | NEUTROPHIL [1]: 7.67% | NUCLEATED RED BLOOD CELLS [1]: 0 /100WBC | PLATELET COUNT [1]: 827.33 x10E3/uL | ALANINE AMINOTRANSFERASE [1]: 51.67 u/L | ALBUMIN [1]: 4.07 G/DL | ALKALINE PHOSPHATASE [1]: 386.67 u/L | ASPARTATE AMINOTRANSFERASE [1]: 91.33 u/L | BLOOD UREA NITROGEN [1]: 15 mg/dL | CARBON DIOXIDE [1]: 32 mmol/L | CHLORIDE [1]: 101.67 MEQ/L | CHOLESTEROL [1]: 61.33 mg/dL | CREATINE PHOSPHOKINASE [1]: 428.33 u/L | CREATININE [1]: 0.13 mg/dL | GLUCOSE [1]: 151.33 mg/dL | LACTATE DEHYDROGENASE [1]: 157.67 u/L | LIPASE [1]: 10 u/L | PHOSPHORUS [1]: 12.2 mg/dL | POTASSIUM [1]: 6.32 MEQ/L | SODIUM [1]: 146.2 MEQ/L | TOTAL BILIRUBIN [1]: 0.17 mg/dL | TOTAL PROTEIN [1]: 6.03 G/DL | URIC ACID [1]: 1.17 mg/dL | ABSOLUTE BASOPHIL [2]: 0 CELLS/uL | ABSOLUTE EOSINOPHIL [2]: 54 CELLS/uL | ABSOLUTE LYMPHOCYTE [2]: 11865 CELLS/uL | ABSOLUTE MONOCYTE [2]: 279 CELLS/uL | ABSOLUTE SEGMENTED NEUTROPHIL [2]: 4168.67 CELLS/uL | BASOPHIL [2]: 0% | EOSINOPHIL [2]: 0.33% | ERYTHROCYTE COUNT [2]: 5.87 x10E6/uL | HEMATOCRIT [2]: 36.97% | HEMOGLOBIN [2]: 14.13 G/DL | LEUKOCYTE COUNT [2]: 16.37 x10E3/uL | LYMPHOCYTE [2]: 72.33% | MEAN CORPUSCULAR HEMOGLOBIN [2]: 24.1 pg | MEAN CORPUSCULAR HEMOGLOBIN CONCENTRATION [2]: 38.23 G/DL | MEAN CORPUSCULAR VOLUME [2]: 63.03 fL | MONOCYTE [2]: 1.67% | NEUTROPHIL [2]: 25.67% | NUCLEATED RED BLOOD CELLS [2]: 0 /100WBC | PLATELET COUNT [2]: 1420.33 x10E3/uL | ALANINE AMINOTRANSFERASE [2]: 76 u/L | ALBUMIN [2]: 3.9 G/DL | ALKALINE PHOSPHATASE [2]: 416.33 u/L | ASPARTATE AMINOTRANSFERASE [2]: 81 u/L | BLOOD UREA NITROGEN [2]: 15.67 mg/dL | CARBON DIOXIDE [2]: 31.67 mmol/L | CHLORIDE [2]: 101.33 MEQ/L | CHOLESTEROL [2]: 79 mg/dL | CREATINE PHOSPHOKINASE [2]: 490.67 u/L | CREATININE [2]: 0.17 mg/dL | GLUCOSE [2]: 142.33 mg/dL | LACTATE DEHYDROGENASE [2]: 208 u/L | LIPASE [2]: 10.67 u/L | PHOSPHORUS [2]: 9.37 mg/dL | POTASSIUM [2]: 5.75 MEQ/L | SODIUM [2]: 145.07 MEQ/L | TOTAL BILIRUBIN [2]: 0.13 mg/dL | TOTAL PROTEIN [2]: 5.97 G/DL | URIC ACID [2]: 0.43 mg/dL | ABSOLUTE BASOPHIL [3]: 0 CELLS/uL | ABSOLUTE EOSINOPHIL [3]: 34 CELLS/uL | ABSOLUTE LYMPHOCYTE [3]: 13648.67 CELLS/uL | ABSOLUTE MONOCYTE [3]: 500 CELLS/uL | ABSOLUTE SEGMENTED NEUTROPHIL [3]: 2484 CELLS/uL | BASOPHIL [3]: 0% | EOSINOPHIL [3]: 0.33% | ERYTHROCYTE COUNT [3]: 6.38 x10E6/uL | HEMATOCRIT [3]: 38.3% | HEMOGLOBIN [3]: 14.7 G/DL | LEUKOCYTE COUNT [3]: 16.67 x10E3/uL | LYMPHOCYTE [3]: 81% | MEAN CORPUSCULAR HEMOGLOBIN [3]: 23.07 pg | MEAN CORPUSCULAR HEMOGLOBIN CONCENTRATION [3]: 38.37 G/DL | MEAN CORPUSCULAR VOLUME [3]: 60.13 fL | MONOCYTE [3]: 3% | NEUTROPHIL [3]: 15.67% | NUCLEATED RED BLOOD CELLS [3]: 0 /100WBC | PLATELET COUNT [3]: 1154.67 x10E3/uL | ALANINE AMINOTRANSFERASE [3]: 76.67 u/L | ALBUMIN [3]: 3.57 G/DL | ALKALINE PHOSPHATASE [3]: 365 u/L | ASPARTATE AMINOTRANSFERASE [3]: 80.33 u/L | BLOOD UREA NITROGEN [3]: 15.33 mg/dL | CARBON DIOXIDE [3]: 30.33 mmol/L | CHLORIDE [3]: 102 MEQ/L | CHOLESTEROL [3]: 68 mg/dL | CREATINE PHOSPHOKINASE [3]: 261.33 u/L | CREATININE [3]: 0.22 mg/dL | GLUCOSE [3]: 118.67 mg/dL | LACTATE DEHYDROGENASE [3]: 110.33 u/L | LIPASE [3]: 11 u/L | PHOSPHORUS [3]: 11.23 mg/dL | POTASSIUM [3]: 6.36 MEQ/L | SODIUM [3]: 146.63 MEQ/L | TOTAL BILIRUBIN [3]: 0.1 mg/dL | TOTAL PROTEIN [3]: 5.73 G/DL | URIC ACID [3]: 1.53 mg/dL
